Here are results for one compound from publication PMC6479881 (Molecules, 2019).

Molecules are shown by their SMILES.

The assay concerns the target T1, Enterococcus faecalis thymidylate synthase (EfTS) (Enterococcus faecalis, UniProt Q834R3).
T1 construct: gene thyA
T1 sequence (Q834R3 1-315): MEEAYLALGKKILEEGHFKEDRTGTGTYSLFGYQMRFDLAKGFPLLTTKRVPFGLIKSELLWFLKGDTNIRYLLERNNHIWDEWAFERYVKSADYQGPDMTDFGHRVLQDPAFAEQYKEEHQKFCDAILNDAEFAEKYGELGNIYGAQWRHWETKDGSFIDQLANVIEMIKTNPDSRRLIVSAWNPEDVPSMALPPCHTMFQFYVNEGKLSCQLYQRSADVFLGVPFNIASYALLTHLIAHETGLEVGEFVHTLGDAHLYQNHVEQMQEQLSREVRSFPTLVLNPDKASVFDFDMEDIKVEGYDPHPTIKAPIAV
The experiment in a line: crystal structure at […] Å; spectrophotometric enzyme inhibition assay (IC50 […], Ki calculated). The assay is classed as biochemical.

As a reminder, the Ki is the equilibrium dissociation constant of an inhibitor or competing ligand from its target. For `O=c1[nH]c(=O)n([C@H]2C[C@H](O)[C@@H](COP(=O)(O)O)O2)cc1F` [FdUMP, 5-fluoro-2′-deoxyuridine-5′-monophosphate], the Ki was 74 nM.
